PubChem BioAssay AID2060623 (Molecular Pharmacology Branch, DTP, NCI, 2025)
pIC50: −log10 of the molar value.

Test system: 227483-062-R1-J1-PDC complex spheroids with HUVEC/MSC, viability
Experiment: Anticancer human tumor 227483-062-R1-J1-PDC patient-derived pancreatic carcinoma cell line growth inhibition [CLK]
Conditions: for pIC50: curve of first compound; for viability, T/C: stronger effect = lower value; active = viability on the fitted dose curve at most 10% of control; inactive = the rest
Procedure, shortened: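 Multi-cell-type spheroids combined patient-derived tumor cells with HUVEC endothelial cells and human mesenchymal stem cells. Paired agents were dosed in half-log steps down from about clinical Cmax, or from 10 microM where Cmax was unknown.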

[1] = second compound 0.0316 µM, first compound 0.0316 µM
[2] = second compound 0.0316 µM, first compound 0.1 µM
[3] = second compound 0.1 µM, first compound 0.0316 µM
[4] = second compound 0.1 µM, first compound 0.1 µM
[5] = second compound 0.316 µM, first compound 0.0316 µM
[6] = second compound 0.316 µM, first compound 0.1 µM
[7] = second compound 1 µM, first compound 0.0316 µM
[8] = second compound 1 µM, first compound 0.1 µM
[9] = second compound 3.16 µM, first compound 0.0316 µM
[10] = second compound 3.16 µM, first compound 0.1 µM
[11] = second compound 10 µM, first compound 0.0316 µM
[12] = second compound 10 µM, first compound 0.1 µM
[13] = second compound 0.0316 µM, first compound 0.316 µM
[14] = second compound 0.0316 µM, first compound 1 µM
[15] = second compound 0.0316 µM, first compound 3.16 µM
[16] = second compound 0.0316 µM, first compound 10 µM
[17] = second compound 0.1 µM, first compound 0.316 µM
[18] = second compound 0.1 µM, first compound 1 µM
[19] = second compound 0.1 µM, first compound 3.16 µM
[20] = second compound 0.1 µM, first compound 10 µM
[21] = second compound 0.316 µM, first compound 0.316 µM
[22] = second compound 0.316 µM, first compound 1 µM
[23] = second compound 0.316 µM, first compound 3.16 µM
[24] = second compound 0.316 µM, first compound 10 µM
[25] = second compound 1 µM, first compound 0.316 µM
[26] = second compound 1 µM, first compound 1 µM
[27] = second compound 1 µM, first compound 3.16 µM
[28] = second compound 1 µM, first compound 10 µM
[29] = second compound 3.16 µM, first compound 0.316 µM
[30] = second compound 3.16 µM, first compound 1 µM
[31] = second compound 3.16 µM, first compound 3.16 µM
[32] = second compound 3.16 µM, first compound 10 µM
[33] = second compound 10 µM, first compound 0.316 µM
[34] = second compound 10 µM, first compound 1 µM
[35] = second compound 10 µM, first compound 3.16 µM
[36] = second compound 10 µM, first compound 10 µM
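Note: spheroids exposed to compounds for seven days before readout.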
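Throughout, for viability, T/C: percent of DMSO vehicle control luminescence as 100% viability.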

Cn1ncnc1[C@H]1c2n[nH]c(=O)c3cc(F)cc(c23)N[C@@H]1c1ccc(F)cc1 + CN1CCN(c2cc(C(=O)Nc3cc4cc(-c5cnn(C)c5)ccc4cn3)ccn2)CC1
inactive: viability, T/C (second compound 0.0316 µM, first compound 0.000316 µM) 114% | viability, T/C (second compound 0.0316 µM, first compound 0.001 µM) 118% | viability, T/C (second compound 0.0316 µM, first compound 0.00316 µM) 114% | viability, T/C (second compound 0.0316 µM, first compound 0.01 µM) 101% | viability, T/C [1] 95.3% | viability, T/C [2] 92.3% | viability, T/C (second compound 0.1 µM, first compound 0.000316 µM) 44.2% | viability, T/C (second compound 0.1 µM, first compound 0.001 µM) 66.2% | viability, T/C (second compound 0.1 µM, first compound 0.00316 µM) 53.6% | viability, T/C (second compound 0.1 µM, first compound 0.01 µM) 53.5% | viability, T/C [3] 56.3% | viability, T/C [4] 54.8%
active: viability, T/C (second compound 0.316 µM, first compound 0.000316 µM) 3.12% | viability, T/C (second compound 0.316 µM, first compound 0.001 µM) 3.26% | viability, T/C (second compound 0.316 µM, first compound 0.00316 µM) 3.58% | viability, T/C (second compound 0.316 µM, first compound 0.01 µM) 4.15% | viability, T/C [5] 3.29% | viability, T/C [6] 4.45% | viability, T/C (second compound 1 µM, first compound 0.000316 µM) 1.25% | viability, T/C (second compound 1 µM, first compound 0.001 µM) 1.34% | viability, T/C (second compound 1 µM, first compound 0.00316 µM) 1.34% | viability, T/C (second compound 1 µM, first compound 0.01 µM) 2.07% | viability, T/C [7] 1.23% | viability, T/C [8] 1.14% | viability, T/C (second compound 3.16 µM, first compound 0.000316 µM) 1.84% | viability, T/C (second compound 3.16 µM, first compound 0.001 µM) 2.14% | viability, T/C (second compound 3.16 µM, first compound 0.00316 µM) 1.91% | viability, T/C (second compound 3.16 µM, first compound 0.01 µM) 2.43% | viability, T/C [9] 1.6% | viability, T/C [10] 1.89% | viability, T/C (second compound 10 µM, first compound 0.000316 µM) 1.14% | viability, T/C (second compound 10 µM, first compound 0.001 µM) 1.09% | viability, T/C (second compound 10 µM, first compound 0.00316 µM) 1.63% | viability, T/C (second compound 10 µM, first compound 0.01 µM) 2.37% | viability, T/C [11] 1.2% | viability, T/C [12] 1%
> 9.50: pIC50 (second compound 0.316 µM) | pIC50 (second compound 1 µM) | pIC50 (second compound 3.16 µM) | pIC50 (second compound 10 µM)
< 7.00: pIC50 (second compound 0.0316 µM) | pIC50 (second compound 0.1 µM)

Nc1ccn(C2OC(CO)C(O)C2(F)F)c(=O)n1 (stereo unspecified) + CN1CCN(c2cc(C(=O)Nc3cc4cc(-c5cnn(C)c5)ccc4cn3)ccn2)CC1
7.14: pIC50 (second compound 0.0316 µM)
> 7.50: pIC50 (second compound 0.1 µM) | pIC50 (second compound 0.316 µM) | pIC50 (second compound 1 µM) | pIC50 (second compound 3.16 µM) | pIC50 (second compound 10 µM)
active: viability, T/C [5] 4.9% | viability, T/C [6] 3.69% | viability, T/C [21] 3.08% | viability, T/C [22] 2.47% | viability, T/C [23] 2.75% | viability, T/C [24] 1.97% | viability, T/C [7] 1.05% | viability, T/C [8] 1.34% | viability, T/C [25] 2.72% | viability, T/C [26] 2.08% | viability, T/C [27] 1.09% | viability, T/C [28] 1.14% | viability, T/C [9] 2.12% | viability, T/C [10] 2.2% | viability, T/C [29] 3.37% | viability, T/C [30] 1.88% | viability, T/C [31] 1.71% | viability, T/C [32] 1.79% | viability, T/C [11] 0.96% | viability, T/C [12] 0.85% | viability, T/C [33] 1.06% | viability, T/C [34] 1.19% | viability, T/C [35] 0.9% | viability, T/C [36] 0.79%
inactive: viability, T/C [1] 76% | viability, T/C [2] 39% | viability, T/C [13] 32.1% | viability, T/C [14] 35.6% | viability, T/C [15] 27.6% | viability, T/C [16] 24.1% | viability, T/C [3] 36.7% | viability, T/C [4] 25.1% | viability, T/C [17] 24.1% | viability, T/C [18] 21% | viability, T/C [19] 22.5% | viability, T/C [20] 15%

O=c1[nH]cc(F)c(=O)[nH]1 + CN1CCN(c2cc(C(=O)Nc3cc4cc(-c5cnn(C)c5)ccc4cn3)ccn2)CC1
> 7.50: pIC50 (second compound 0.316 µM) | pIC50 (second compound 1 µM) | pIC50 (second compound 3.16 µM) | pIC50 (second compound 10 µM)
inactive: viability, T/C [1] 113% | viability, T/C [2] 117% | viability, T/C [13] 109% | viability, T/C [14] 76.9% | viability, T/C [15] 50.8% | viability, T/C [16] 31.9% | viability, T/C [3] 69.3% | viability, T/C [4] 57.1% | viability, T/C [17] 58.1% | viability, T/C [18] 38.1% | viability, T/C [19] 27.5% | viability, T/C [20] 20.5%
5.53: pIC50 (second compound 0.0316 µM)
active: viability, T/C [5] 6.26% | viability, T/C [6] 5.02% | viability, T/C [21] 5.2% | viability, T/C [22] 4.61% | viability, T/C [23] 4.43% | viability, T/C [24] 3.27% | viability, T/C [7] 1.65% | viability, T/C [8] 2.05% | viability, T/C [25] 5.56% | viability, T/C [26] 1.25% | viability, T/C [27] 1.55% | viability, T/C [28] 1.14% | viability, T/C [9] 4.69% | viability, T/C [10] 2.74% | viability, T/C [29] 3.16% | viability, T/C [30] 2.23% | viability, T/C [31] 2.22% | viability, T/C [32] 2.26% | viability, T/C [11] 1.91% | viability, T/C [12] 1.38% | viability, T/C [33] 1.3% | viability, T/C [34] 3.91% | viability, T/C [35] 1.9% | viability, T/C [36] 2.3%
6.44: pIC50 (second compound 0.1 µM)
